Laboratory results published in patent US6610314B2, “Antimicrobial formulations” (Kimberly-Clark Worldwide, Inc., priority 2001, dated 2003).

Experiments:
Human stratum corneum = details: tape biopsies soaked 30 minutes at room temperature; against purified water controls; tested in triplicate; Sulfate
Description: Skin mildness was evaluated by measuring the damage caused by the biocide on the outer portion of the stratum corneum, and specifically the removal of the lipid component of the stratum corneum.
Human stratum corneum was harvested from adult legs using D-Squame tape biopsies (Cuderm Corporation, Dallas Tex.). Each biopsy harvested consisted of about 7 to 8 pulls from multiple sites on a subject's lower leg. After harvesting, the tapes containing the biopsies were soaked in the test biocide (2 mL) in covered six well tissue cultured dishes for 30 minutes at room temperature. Each biocide formulation was tested in triplicate in adjacent wells.
After soaking the tape strips in the biocide, the tape strips were removed and washed for 3 minutes with cold tap water, and dried at room temperature. After drying, the tape strips containing the biopsies were completely immersed in fushin-toluidine blue dye (Polychrome Multiple Stain, PMS: Delasco, Council Bluff, Iowa.) The immersion continued for 3 minutes after which the tape strips were removed and washed for 3 minutes in cold tap water. After washing, the tape strips were allowed to dry completely at room temperature.
The color of the dried samples was measured by color reflectance using a Minolta CR 5000 (Minolta, Osaka, Japan) spectrophotometer. The color measurements recorded the luminance (L*) and chromaticity through Chroma C* described by the equation (a^*2+b^*2)^½. The color differentials between test materials and controls were calculated according to: [(ΔL*)^2+(ΔC*)^2]^1/2=ΔE*ab. The measurements were taken against controls which were purified water.

[1] = tested on: Escherichia coli (ATCC 8739); experiment: Alamar Blue reduction biocidal assay, 5 minute exposure; type: cell-based; details: for IC50: Escherichia coli, ATCC8739, ATCC 8739, 5 min, read-out: 50% Inhibitory Concentration (IC50), E. coli, 50% inhibition of Alamar Blue reduction
Description: (§1) In this Example, the antimicrobial efficacy (in terms of IC50 data) of several different formulations against Staphylococcus aureus, Staphylococcus epidermidis, and Escherichia coli was evaluated. The formulations tested comprised a formulation based upon the present invention as well as several other formulations comprised of various organic acids and/or surfactants, as well as surfactants alone. Microorganism Preparation: Lyophilized cultures of Escherichia coli (ATCC 8739), Staphylococcus aureus (ATCC 6538), and Staphylococcus epidermidis (ATCC 12,228) were obtained from the American Type Culture Collection (ATCC) (Rockville, Md.). All three cultures were reconstituted according to ATCC specifications. Aliquots (0.5 mL) of reconstituted 24 hour broth growth were frozen and held at −80° C. until needed. Working cultures were prepared weekly by streaking a loop of frozen culture onto tryptic soy agar plates (TSA) (Becton Dickinson Microbiology Systems, Cockeysville, Md.) and then incubating overnight at 37° C. After incubation, the cultures were held at 4° C. for not more than about 5 days. One day prior to testing, a fresh TSA plate was prepared with a sterile swab to achieve a lawn of growth and incubated at 37° C. for about 24 hours. […] Cell concentrations were determined in triplicate by taking optical density readings of a sample (200 microliters) with a ThermoMax microplate reader spectrophotometer (Molecular Devices) at 650 nm. From a standard curve the appropriate volume of the PBW containing the cells was determined to prepare 1.1×10^9 CFU/mL in the PBW. Exact cell numbers were confirmed by spread plating on TSA and incubating at 37° C. Assay Protocol: To all wells of a Microflour®2 96 well microtiter plate (8 Rows by 12 Columns) (Dynex Technologies, Chantilly, Va.) was added 25 microliters of filtered, sterilized water (Millipore Continental Water Systems, Bedford Mass.). […] After mixing, 25 microliters was transferred from each well in Row A to its corresponding well in Row B to produce a new 50 microliter mixture of sample formulation and water having one half the concentration of sample formulation as that of Row A. The Row B mixtures were aspirated 3 times to thoroughly mix the sample formulation and water combination. These serial dilutions continued down the Rows until reaching Row G (for a total of 6 dilutions from the original plates in Row A). After thorough mixing of Row G well contents, 25 microliters of each well in Row G (a total of 12) was discarded to produce a Row G having 12 columns each containing 25 microliters. […] After serial dilution, bacterial cells were introduced into the wells. […] In columns 4, 5, and 6 of each Row, 25 microliters (about 2.75×10^7 cells) of Staphylococcus epidermidis as prepared above was introduced and mixed. In columns 7, 8, and 9 of each Row, 25 microliters (about 2.75×10^7 cells) of Escherichia coli as prepared above was introduced and mixed. The sample formulations as prepared above were appropriately diluted (if necessary) prior to the introduction of the sample formulations into Row A. The dilutions were made such that, after the sample formulation was introduced into Row A, and after the cells were introduced into Row A (i.e., after reducing the initial concentration of the sample formulation by 50% two times), the initial concentrations were as follows: After the addition of the cells, incubation proceeded (5 minutes) at room temperature. After the incubation period, a 1.6 M phosphate buffer (50 microliters) was added to all wells to neutralize the biocide. Then, 3×Letheen broth (50 microliters) (Difco Laboratories, Detroit, Mich.) and Alamar Blue (25 microliters at room temperature) (AccuMed International, Westlake, Ohio) were added to each well. A positive control was also utilized in the experiment. The positive control consisted of adding sterile Milli-Q water to the wells in place of sample formulation. […]

[2] = tested on: Staphylococcus aureus (ATCC 6538); experiment: as above; type: cell-based; details: for IC50: Staphylococcus aureus, ATCC6538, 5 min, read-out: 50% Inhibitory Concentration (IC50), S. aureus, 50% inhibition of Alamar Blue reduction; for IC50 / 50% Inhibitory Concentration (IC50), S. aureus: 5 minutes incubation at room temperature; for 50% Inhibitory Concentration (IC50), S. aureus: 50% inhibition of Alamar Blue reduction
Description: as §1

[3] = tested on: Staphylococcus epidermidis (ATCC 12,228); experiment: as above; type: cell-based; details: for IC50: Staphylococcus epidermidis, ATCC12, 5 min, read-out: 50% Inhibitory Concentration (IC50), S. epidermidis, 50% inhibition of Alamar Blue reduction
Description: as §1

[4] = 5 minutes incubation at room temperature
[5] = 50% inhibition of Alamar Blue reduction, 5 minutes incubation at room temperature, listed as #4, sulfate

Compound | ΔE*ab (color differential of dye-stained stratum corneum biopsies) (Human stratum corneum) | IC50 [1, 4] | IC50 [2] | IC50 [3, 4] | also measured
CCCCCCCCCCCCOS(=O)(=O)[O-].[Na+] [Formulation 6, Sodium Dodecyl Sulfate] | 3.36 |  |  |  | 
CCCCCCCCCCCCOS(=O)(=O)[O-].[Na+] [Formulation 4, Sodium Dodecyl Sulfate] | 34.41 |  |  |  | 
O=C(O)CC(O)(CC(=O)O)C(=O)O [Biocide #1, Citric Acid] |  | > 6300 µg/mL | 2200 µg/mL | 710 µg/mL | 
O=C(O)CC(O)C(=O)O (stereo not drawn) [Biocide #2, Malic Acid] |  | 6000 µg/mL | 1300 µg/mL | 240 µg/mL | 
CCCCCCCCCCCCOS(=O)(=O)[O-].[Na+] [Formulation 5, Sodium Dodecyl Sulfate] | 20.76 |  |  |  | 
CCCCCCCCCCCCOS(=O)(=O)[O-].[Na+] [Biocide #4, sodium dodecyl sulfate] |  | ~79000 µg/mL |  | < 1000 µg/mL | inhibition in words, E. coli [1]: exhibited inhibition; 50% Inhibitory Concentration (IC50), E. coli [1, 5]: 79500 µg/mL; inhibition / biocidal activity in words, S. aureus [2]: exhibited inhibition; 50% Inhibitory Concentration (IC50), S. aureus ([2]; listed as #4, sulfate): 480 µg/mL; 50% Inhibitory Concentration (IC50), S. aureus ([2]; listed as sodium dodecyl sulfate, sulfate): less than 1 g/L; inhibition in words, S. epidermidis [3]: exhibited inhibition; 50% Inhibitory Concentration (IC50), S. epidermidis [3, 5]: 950 µg/mL
